# Legend:
# Type in all cases: biochemical
# [1] = target: T1, PDGFRβ kinase (Homo sapiens, UniProt P09619); assay: In vitro PDGFRβ kinase assay; details: ADP Quest assay, poly Glu:Tyr substrate, 60 μM ATP
# T1 construct: purchased Invitrogen Inc. P3082
# Method: (§1) In vitro vegfr2 and PDGFRβ Kinase Assays
# (§2) 2.5 μl of ADP Quest assay buffer (DiscoverX Inc., cat. #90-0071) containing 20 ng VEGFR2 kinase (Invitrogen Inc, cat. #PV3660) or 25 ng PDGFRβ kinase (Invitrogen Inc., cat. #P3082) is dispensed to wells of a 1536 multi-well, black solid plate. 60 nl of 100× concentration of test compound in DMSO is dispensed to the well by passive pin transfer and incubated for 10 minutes at room temperature (approx. 22° C.). 2.5 μl of ADP Quest assay buffer containing 0.25 μg of poly Glu:Tyr (4:1) substrate peptide (Upstate Inc., cat. #12-440) and 60 μM ATP is then dispensed and the kinase reaction allowed to incubate at 30° C. for 2 hours. The assay plates are sealed and maintained in a humidified environment. After the 2 hour incubation, 2 μl of ADP Quest assay reagent A, followed by 2 μl of assay reagent B, is added. After an additional 30 minute incubation at room temperature, fluorescence intensity is measured on a Molecular Devices Aquest multi-mode plate reader or other suitable plate reader (fluorescence excitation filter: 530/25 [Peak (nm)/FWHM passband (nm)]; dichroic beamsplitter: 561 nm longpass; fluorescence emission filter: 580/10 [Peak (nm)/FWHM passband (nm)]. The assay measures the conversion of a non-fluoresecent molecule to fluorescent resorutin, which correlates with kinase activity. Negative control activity is measured with DMSO lacking any test compound. The positive control is [N-(3-trifluoromethyl-4-chlorophenyl)-N′-(4-(2-methylcarbamoyl-pyridin-4-yl)oxyphenyl)urea], aka Bay 43-9006. Efficacy is measured as a percentage of positive control activity.
# [2] = target: T2, VEGFR2 kinase (Homo sapiens, UniProt P35968); assay: In vitro VEGFR2 kinase assay; details: ADP Quest assay, poly Glu:Tyr substrate, 60 μM ATP
# T2 construct: purchased Invitrogen Inc PV3660
# T2 sequence (P35968 20-1356): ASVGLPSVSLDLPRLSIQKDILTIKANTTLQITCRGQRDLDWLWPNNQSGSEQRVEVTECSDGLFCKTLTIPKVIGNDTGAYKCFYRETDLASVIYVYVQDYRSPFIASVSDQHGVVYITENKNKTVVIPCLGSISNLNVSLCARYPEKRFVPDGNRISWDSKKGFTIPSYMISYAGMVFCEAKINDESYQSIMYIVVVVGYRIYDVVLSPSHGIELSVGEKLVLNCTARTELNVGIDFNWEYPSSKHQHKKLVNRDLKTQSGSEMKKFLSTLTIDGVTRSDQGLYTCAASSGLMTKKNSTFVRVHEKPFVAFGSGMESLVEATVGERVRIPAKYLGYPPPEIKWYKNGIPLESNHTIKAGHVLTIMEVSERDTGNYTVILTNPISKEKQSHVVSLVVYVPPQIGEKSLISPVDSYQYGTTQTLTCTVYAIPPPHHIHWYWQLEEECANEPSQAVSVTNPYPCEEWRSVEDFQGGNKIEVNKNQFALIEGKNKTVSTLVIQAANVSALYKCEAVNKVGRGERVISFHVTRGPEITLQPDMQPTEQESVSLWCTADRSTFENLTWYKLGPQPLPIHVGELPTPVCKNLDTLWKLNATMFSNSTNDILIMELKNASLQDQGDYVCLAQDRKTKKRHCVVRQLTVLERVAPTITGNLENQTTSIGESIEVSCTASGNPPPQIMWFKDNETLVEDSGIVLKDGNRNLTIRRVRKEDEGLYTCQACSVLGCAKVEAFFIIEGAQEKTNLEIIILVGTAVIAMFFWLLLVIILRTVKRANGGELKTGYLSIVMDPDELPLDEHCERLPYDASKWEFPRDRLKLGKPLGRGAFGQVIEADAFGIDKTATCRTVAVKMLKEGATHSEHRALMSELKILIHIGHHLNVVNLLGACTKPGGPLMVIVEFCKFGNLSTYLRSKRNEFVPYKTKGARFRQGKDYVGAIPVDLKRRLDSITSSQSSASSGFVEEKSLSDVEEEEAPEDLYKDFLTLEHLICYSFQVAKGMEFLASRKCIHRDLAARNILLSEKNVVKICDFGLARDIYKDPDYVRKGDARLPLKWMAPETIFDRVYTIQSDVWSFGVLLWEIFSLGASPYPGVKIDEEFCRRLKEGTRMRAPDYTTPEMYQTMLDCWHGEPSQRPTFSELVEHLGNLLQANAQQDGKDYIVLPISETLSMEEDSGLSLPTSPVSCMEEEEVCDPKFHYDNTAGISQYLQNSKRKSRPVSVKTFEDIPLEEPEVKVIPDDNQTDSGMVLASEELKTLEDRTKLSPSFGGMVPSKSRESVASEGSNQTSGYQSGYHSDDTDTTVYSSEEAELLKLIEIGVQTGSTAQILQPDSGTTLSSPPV
# Method: as §1, §2
# [3] = target: T3, human B-Raf protein kinase (Homo sapiens, UniProt P15056); assay: In vitro B-Raf/Mek1 composite kinase assay; details: recombinant GST-tagged human B-Raf (Δ1-415) with inactive Mek1, 2 μM ATP
# T3 construct: GST (N); purchased Upstate Inc. 14-530 (B-Raf); 14-420 (Mek1)
# T3 sequence (P15056 416-766): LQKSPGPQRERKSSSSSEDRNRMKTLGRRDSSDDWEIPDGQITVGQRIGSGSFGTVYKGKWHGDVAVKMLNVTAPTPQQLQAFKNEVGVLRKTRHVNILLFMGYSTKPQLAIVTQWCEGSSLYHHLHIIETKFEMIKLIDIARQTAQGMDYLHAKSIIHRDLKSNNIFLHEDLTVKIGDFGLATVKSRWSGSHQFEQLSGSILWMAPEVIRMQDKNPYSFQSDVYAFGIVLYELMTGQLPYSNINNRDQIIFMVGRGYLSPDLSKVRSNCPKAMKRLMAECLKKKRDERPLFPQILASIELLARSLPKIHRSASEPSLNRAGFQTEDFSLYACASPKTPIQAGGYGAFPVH
# Method: In Vitro B-Raf/Mek1 Composite Kinase Assay
# 2.5 μl of B-Raf kinase buffer (20 mM MOPS [pH 7.2], 25 mM sodium glycerophosphate, 2 mM EGTA [pH 8.0], 1 mM sodium orthovanadate, 1 mM dithiothreitol, 10 mM MgCl2, 0.03% Brij-35, 0.3 mg/ml bovine serum albumin) containing 1 ng of recombinant, N-terminal GST-tagged human B-Raf protein kinase (Δ1-415, Upstate Inc., cat. #14-530) is dispensed to wells of a 1536 multi-well white solid plate. 60 nl of 100× concentration of test compound in DMSO is dispensed to the well by passive pin transfer and incubated for 15 minutes at room temperature (approx. 22° C.). […] The assay plates are sealed and maintained in a humidified environment. After 2 hours, 2.5 μl of PKLight protein kinase assay reagent (Cambrex, cat. #LT07-501) is dispensed. After an additional 5 minute incubation at room temperature, luminescence activity is measured on a Molecular Devices Analyst multi-mode plate reader or other suitable plate reader. Kinase inhibition results in less ATP depletion, and therefore increased luminescence signal. Negative control activity is measured with DMSO lacking any test compound. The positive control is [N-(3-trifluoromethyl-4-chlorophenyl)-N′-(4-(2-methylcarbamoyl-pyridin-4-yl)oxyphenyl)urea], aka Bay 43-9006. Efficacy is measured as a percentage of positive control activity.
# T1 sequence (P09619 33-1106): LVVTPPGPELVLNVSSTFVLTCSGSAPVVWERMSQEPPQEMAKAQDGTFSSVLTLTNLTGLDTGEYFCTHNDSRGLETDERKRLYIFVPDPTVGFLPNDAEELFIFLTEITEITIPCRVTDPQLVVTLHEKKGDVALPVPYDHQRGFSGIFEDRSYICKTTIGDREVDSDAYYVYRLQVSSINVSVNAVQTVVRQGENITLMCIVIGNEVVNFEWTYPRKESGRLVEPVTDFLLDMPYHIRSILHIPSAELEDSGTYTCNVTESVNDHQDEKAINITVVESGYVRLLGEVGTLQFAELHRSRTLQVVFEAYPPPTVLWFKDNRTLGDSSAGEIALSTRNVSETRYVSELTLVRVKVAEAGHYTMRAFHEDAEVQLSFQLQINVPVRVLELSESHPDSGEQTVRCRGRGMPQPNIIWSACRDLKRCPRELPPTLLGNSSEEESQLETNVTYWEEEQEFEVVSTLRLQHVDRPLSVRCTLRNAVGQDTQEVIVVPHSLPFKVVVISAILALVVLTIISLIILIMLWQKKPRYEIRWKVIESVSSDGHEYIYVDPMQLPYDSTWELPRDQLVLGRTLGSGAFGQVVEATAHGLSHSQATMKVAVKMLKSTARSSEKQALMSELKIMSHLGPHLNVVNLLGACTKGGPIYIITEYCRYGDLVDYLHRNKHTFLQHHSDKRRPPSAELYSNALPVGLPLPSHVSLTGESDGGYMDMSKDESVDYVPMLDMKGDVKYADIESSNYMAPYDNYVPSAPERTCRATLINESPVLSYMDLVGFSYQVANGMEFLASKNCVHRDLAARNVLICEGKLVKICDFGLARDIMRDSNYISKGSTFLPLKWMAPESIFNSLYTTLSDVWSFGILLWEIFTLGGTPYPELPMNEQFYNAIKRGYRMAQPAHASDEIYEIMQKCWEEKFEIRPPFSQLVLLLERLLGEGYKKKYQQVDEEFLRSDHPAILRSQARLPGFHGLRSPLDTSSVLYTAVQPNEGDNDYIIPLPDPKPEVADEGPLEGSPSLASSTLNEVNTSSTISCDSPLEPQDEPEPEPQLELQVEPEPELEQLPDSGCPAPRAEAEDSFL
structure (smiles),measurement,setting,value
"O=C(Nc1ccc(Cl)c(C(F)(F)F)c1)Nc1cc(Oc2cc(-c3nnco3)ncn2)c(F)cc1F [Example 45, 1-(5-(6-(1,3,4-Oxadiazol-2-yl)pyrimidin-4-yloxy)-2,4-difluorophenyl)-3-(4-chloro-3-(trifluoromethyl)phenyl)urea]",IC50,[1],≤ 10 µM
same,IC50,[2],≤ 10 µM
same,IC50,[3],≤ 10 µM
"Cc1nc(-c2cc(Oc3cccc(NC(=O)Nc4ccc(Cl)c(C(F)(F)F)c4)c3)ncn2)cs1 [Example 46, 1-(4-Chloro-3-(trifluoromethyl)phenyl)-3-(3-(6-(2-methylthiazol-4-yl)pyrimidin-4-yloxy)phenyl)urea]",IC50,[1],≤ 10 µM
same,IC50,[2],≤ 10 µM
same,IC50,[3],≤ 10 µM
"CN1CCC(OCc2cc(NC(=O)Nc3ccc(Oc4ccnc(-c5nnco5)c4)cc3)cc(C(F)(F)F)c2)CC1 [Example 47, 1-(4-(2-(1,3,4-Oxadiazol-2-yl)pyridin-4-yloxy)phenyl)-3-(3-((1-methylpiperidin-4-yloxy)methyl)-5-(trifluoromethyl)phenyl)urea]",IC50,[1],≤ 10 µM
same,IC50,[2],≤ 10 µM
same,IC50,[3],≤ 10 µM
"O=C(Nc1cccc(Oc2cc(-c3nnco3)ncn2)c1)Nc1ccc(C(F)(F)F)c(Cl)c1 [Example 48, 1-(3-(6-(1,3,4-Oxadiazol-2-yl)pyrimidin-4-yloxy)phenyl)-3-(3-chloro-4-(trifluoromethyl)phenyl)urea]",IC50,[1],≤ 10 µM
same,IC50,[2],≤ 10 µM
same,IC50,[3],≤ 10 µM
"O=C(Nc1cccc(Oc2cc(-c3cnn(Cc4ccccc4)c3)ncn2)c1)Nc1ccc(Cl)c(C(F)(F)F)c1 [Example 49, 1-(3-(6-(1-Benzyl-1H-pyrazol-4-yl)pyrimidin-4-yloxy)phenyl)-3-(4-chloro-3-(trifluoromethyl)phenyl)urea]",IC50,[1],> 10 µM
same,IC50,[2],> 10 µM
same,IC50,[3],≤ 10 µM
"CN(C)CCNc1nc(-c2cc(Oc3cccc(NC(=O)Nc4ccc(Cl)c(C(F)(F)F)c4)c3)ncn2)cs1 [Example 50, 1-(4-Chloro-3-(trifluoromethyl)phenyl)-3-(3-(6-(2-(2-(dimethylamino)ethylamino)thiazol-4-yl)pyrimidin-4-yloxy)phenyl)urea]",IC50,[1],≤ 10 µM
same,IC50,[2],≤ 10 µM
same,IC50,[3],≤ 10 µM
"Cc1cn(-c2cc(NC(=O)Nc3ccc(Oc4cc(-c5cnn(C)c5)ncn4)cc3)cc(C(F)(F)F)c2)cn1 [Example 51, 1-(3-(4-Methyl-1H-imidazol-1-yl)-5-(trifluoromethyl)phenyl)-3-(4-(6-(1-methyl-1H-pyrazol-4-yl)pyrimidin-4-yloxy)phenyl)urea]",IC50,[1],≤ 10 µM
same,IC50,[2],≤ 10 µM
same,IC50,[3],≤ 10 µM
"COCCOc1ccc(NC(=O)Nc2ccc(Oc3cc(-c4cnn(C)c4)ncn3)cc2)cc1C(F)(F)F [Example 52, 1-(4-(2-Methoxyethoxy)-3-(trifluoromethyl)phenyl)-3-(4-(6-(1-methyl-1H-pyrazol-4-yl)pyrimidin-4-yloxy)phenyl)urea]",IC50,[1],≤ 10 µM
same,IC50,[2],≤ 10 µM
same,IC50,[3],≤ 10 µM
"COCCOc1ccc(NC(=O)Nc2ccc(Oc3cc(-c4nnco4)ncn3)cc2)cc1C(F)(F)F [Example 53, 1-(4-(6-(1,3,4-Oxadiazol-2-yl)pyrimidin-4-yloxy)phenyl)-3-(4-(2-methoxyethoxy)-3-(trifluoromethyl)phenyl)urea]",IC50,[1],≤ 10 µM
same,IC50,[2],≤ 10 µM
same,IC50,[3],> 10 µM
"COC(=O)Cn1cc(-c2cc(Oc3cccc(NC(=O)Nc4ccc(Cl)c(C(F)(F)F)c4)c3)ncn2)cn1 [Example 54, Methyl 2-(4-(6-(3-(3-(4-chloro-3-(trifluoromethyl)phenyl)ureido)phenoxy)pyrimidin-4-yl)-1H-pyrazol-1-yl)acetate]",IC50,[1],≤ 10 µM
same,IC50,[2],≤ 10 µM
same,IC50,[3],≤ 10 µM
"CNC(=O)Cn1cc(-c2cc(Oc3cccc(NC(=O)Nc4ccc(Cl)c(C(F)(F)F)c4)c3)ncn2)cn1 [Example 56, 2-(4-(6-(3-(3-(4-Chloro-3-(trifluoromethyl)phenyl)ureido)phenoxy)pyrimidin-4-yl)-1H-pyrazol-1-yl)-N-methylacetamide]",IC50,[1],≤ 10 µM
same,IC50,[2],≤ 10 µM
same,IC50,[3],≤ 10 µM

# Source: US20070155764A1, “NOVEL SUBSTITUTED PYRIMIDINYLOXY UREAS USEFUL AS INHIBITORS OF PROTEIN KINASES” (KALYPSYS, INC., priority 2005, published 2007)
